Results: US20230372498A1, “PLK1 SELECTIVE DEGRADATION INDUCING COMPOUND” (UPPTHERA, priority 2020, published 2023)

Molecular target: T1, PLK1 (Homo sapiens, UniProt P53350)
T1 construct: endogenous in cells; host or cells: HeLa
Test: PLK1 protein degradation in HeLa cells, Western blotting (PLK1/GAPDH ratio)
Format: cell-based
Settings: 6 hours compound incubation; for DC50: measured only if the grade of Dmax is A or B; for Dmax: thymidine block and release, 10 points three-fold from 3 μM, PLK1 to GAPDH ratio, read-out: Dmax
How it was run: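 Thymidine-synchronised HeLa cells (2 mM, 24 h) released 4 h into complete medium, then treated 6 h with compound in 10-point 3-fold dilutions from 3 μM. RIPA lysates (15 μg protein) run on SDS-PAGE; PLK1 Western blot normalised to GAPDH.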

T1 sequence (P53350 whole entry): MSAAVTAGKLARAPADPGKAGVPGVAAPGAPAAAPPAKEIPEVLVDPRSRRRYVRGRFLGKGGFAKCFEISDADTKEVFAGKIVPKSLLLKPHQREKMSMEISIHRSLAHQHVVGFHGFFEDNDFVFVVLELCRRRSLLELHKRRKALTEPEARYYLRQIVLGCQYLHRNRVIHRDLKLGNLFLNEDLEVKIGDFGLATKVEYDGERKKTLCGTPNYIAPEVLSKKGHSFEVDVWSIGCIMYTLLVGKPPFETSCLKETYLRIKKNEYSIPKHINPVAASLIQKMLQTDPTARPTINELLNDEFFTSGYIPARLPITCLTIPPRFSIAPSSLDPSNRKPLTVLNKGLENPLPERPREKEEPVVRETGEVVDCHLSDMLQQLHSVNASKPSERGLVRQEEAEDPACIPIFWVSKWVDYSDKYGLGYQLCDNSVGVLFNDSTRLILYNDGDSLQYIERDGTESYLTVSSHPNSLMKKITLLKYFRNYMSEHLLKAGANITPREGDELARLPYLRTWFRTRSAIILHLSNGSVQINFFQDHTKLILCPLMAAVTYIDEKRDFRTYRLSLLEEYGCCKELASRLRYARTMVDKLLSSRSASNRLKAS

DC50 [nM] | Dmax [%] | SMILES
≤ 50 | ≥ 80 | COc1cc(C(=O)NC2CCN(CCOCCOCCNc3cccc4c3C(=O)N(C3CCC(=O)NC3=O)C4=O)CC2)ccc1Nc1ncc2c(n1)N(C1CCCC1)CC(F)(F)C(=O)N2C (stereo not shown) [Example 96, 4-((9-cyclopentyl-7,7-difluoro-5-methyl-6-oxo-6,7,8,9-tetrahydro-5H-pyrimido[4,5-b][1,4]diazepin-2-yl)amino)-N-(1-(2-(2-(2-((2-(2,6-dioxopiperidin-3-yl)-1,3-dioxoisoindolin-4-yl)amino)ethoxy)ethoxy)ethyl)piperidin-4-yl)-3-methoxybenzamide]
 | < 60 | CN1C(=O)C(F)(F)CN(C2CCCC2)c2nc(Nc3cc(F)c(C(=O)NC4CCN(CCOCCOCCNc5cccc6c5C(=O)N(C5CCC(=O)NC5=O)C6=O)CC4)cc3OCCO)ncc21 (stereo not shown) [Example 97, 4-((9-cyclopentyl-7,7-difluoro-5-methyl-6-oxo-6,7,8,9-tetrahydro-5H-pyrimido[4,5-b][1,4]diazepin-2-yl)amino)-N-(1-(2-(2-(2-((2-(2,6-dioxopiperidin-3-yl)-1,3-dioxoisoindolin-4-yl)amino)ethoxy)ethoxy)ethyl)piperidin-4-yl)-2-fluoro-5-(2-hydroxyethoxy)benzamide]
≤ 500 | 60 to 80 | CN1C(=O)C(F)(F)CN(C2CCCC2)c2nc(Nc3ccc(C(=O)NC4CCN(CCOCCOCCNc5cccc6c5C(=O)N(C5CCC(=O)NC5=O)C6=O)CC4)cc3OCCO)ncc21 (stereo not shown) [Example 98, 4-((9-cyclopentyl-7,7-difluoro-5-methyl-6-oxo-6,7,8,9-tetrahydro-5H-pyrimido[4,5-b][1,4]diazepin-2-yl)amino)-N-(1-(2-(2-(2-((2-(2,6-dioxopiperidin-3-yl)-1,3-dioxoisoindolin-4-yl)amino)ethoxy)ethoxy)ethyl)piperidin-4-yl)-3-(2-hydroxyethoxy)benzamide]
≤ 500 | 60 to 80 | CN1C(=O)C(F)(F)CN(C2CCCC2)c2nc(Nc3cc(F)c(C(=O)NC4CCN(CCOCCOCCNc5cccc6c5C(=O)N(C5CCC(=O)NC5=O)C6=O)CC4)cc3OC(F)(F)F)ncc21 (stereo not shown) [Example 99, 4-((9-cyclopentyl-7,7-difluoro-5-methyl-6-oxo-6,7,8,9-tetrahydro-5H-pyrimido[4,5-b][1,4]diazepin-2-yl)amino)-N-(1-(2-(2-(2-((2-(2,6-dioxopiperidin-3-yl)-1,3-dioxoisoindolin-4-yl)amino)ethoxy)ethoxy)ethyl)piperidin-4-yl)-2-fluoro-5-(trifluoromethoxy)benzamide]
≤ 500 | 60 to 80 | COc1cc(C(=O)NC2CCN(CCOCCOCCNc3cccc4c3C(=O)N(C3CCC(=O)NC3=O)C4=O)CC2)c(F)cc1Nc1ncc2c(n1)N(C(C)C)CC(F)(F)C(=O)N2C (stereo not shown) [Example 100, 4-((7,7-difluoro-9-isopropyl-5-methyl-6-oxo-6,7,8,9-tetrahydro-5H-pyrimido[4,5-b][1,4]diazepin-2-yl)amino)-N-(1-(2-(2-(2-((2-(2,6-dioxopiperidin-3-yl)-1,3-dioxoisoindolin-4-yl)amino)ethoxy)ethoxy)ethyl)piperidin-4-yl)-2-fluoro-5-methoxybenzamide]
≤ 50 | ≥ 80 | COc1cc(C(=O)NC2CCN(CCOCCOCCOCCOCCNc3cccc4c3C(=O)N(C3CCC(=O)NC3=O)C4=O)CC2)c(F)cc1Nc1ncc2c(n1)N(C(C)C)CC(F)(F)C(=O)N2C (stereo not shown) [Example 101, 4-((7,7-difluoro-9-isopropyl-5-methyl-6-oxo-6,7,8,9-tetrahydro-5H-pyrimido[4,5-b][1,4]diazepin-2-yl)amino)-N-(1-(14-((2-(2,6-dioxopiperidin-3-yl)-1,3-dioxoisoindolin-4-yl)amino)-3,6,9,12-tetraoxatetradecyl)piperidin-4-yl)-2-fluoro-5-methoxybenzamide]
≤ 50 | ≥ 80 | CN1C(=O)C(F)(F)CN(C2CCCC2)c2nc(Nc3ccc(C(=O)NC4CCN(C(=O)CCCNc5cccc6c5C(=O)N(C5CCC(=O)NC5=O)C6=O)CC4)cc3)ncc21 (stereo not shown) [Example 102, 4-((9-cyclopentyl-7,7-difluoro-5-methyl-6-oxo-6,7,8,9-tetrahydro-5H-pyrimido[4,5-b][1,4]diazepin-2-yl)amino)-N-(1-(4-((2-(2,6-dioxopiperidin-3-yl)-1,3-dioxoisoindolin-4-yl)amino)butanoyl)piperidin-4-yl)benzamide]
≤ 50 | ≥ 80 | COc1cc(C(=O)N[C@H]2CC[C@H](N3CCN(CCOCCNc4cccc5c4C(=O)N(C4CCC(=O)NC4=O)C5=O)CC3)CC2)c(F)cc1Nc1ncc2c(n1)N(C1CCCC1)CC(F)(F)C(=O)N2C (stereo partly shown) [Example 103, 4-((9-cyclopentyl-7,7-difluoro-5-methyl-6-oxo-6,7,8,9-tetrahydro-5H-pyrimido[4,5-b][1,4]diazepin-2-yl)amino)-N-((1r,4r)-4-(4-(2-(2-((2-(2,6-dioxopiperidin-3-yl)-1,3-dioxoisoindolin-4-yl)amino)ethoxy)ethyl)piperazin-1-yl)cyclohexyl)-2-fluoro-5-methoxybenzamide]
≤ 50 | ≥ 80 | COc1cc(C(=O)NC2CCCN(CCOCCOCCNc3cccc4c3C(=O)N(C3CCC(=O)NC3=O)C4=O)C2)c(F)cc1Nc1ncc2c(n1)N(C1CCCC1)CC(F)(F)C(=O)N2C (stereo not shown) [Example 104, 4-((9-cyclopentyl-7,7-difluoro-5-methyl-6-oxo-6,7,8,9-tetrahydro-5H-pyrimido[4,5-b][1,4]diazepin-2-yl)amino)-N-(1-(2-(2-(2-((2-(2,6-dioxopiperidin-3-yl)-1,3-dioxoisoindolin-4-yl)amino)ethoxy)ethoxy)ethyl)piperidin-3-yl)-2-fluoro-5-methoxybenzamide]
≤ 500 | 60 to 80 | COc1cc(C(=O)NC2CCCN(CCOCCNc3cccc4c3C(=O)N(C3CCC(=O)NC3=O)C4=O)C2)c(F)cc1Nc1ncc2c(n1)N(C1CCCC1)CC(F)(F)C(=O)N2C (stereo not shown) [Example 105, 4-((9-cyclopentyl-7,7-difluoro-5-methyl-6-oxo-6,7,8,9-tetrahydro-5H-pyrimido[4,5-b][1,4]diazepin-2-yl)amino)-N-(1-(2-(2-((2-(2,6-dioxopiperidin-3-yl)-1,3-dioxoisoindolin-4-yl)amino)ethoxy)ethyl)piperidin-3-yl)-2-fluoro-5-methoxybenzamide]
≤ 500 | 60 to 80 | COc1cc(C(=O)NC2CCN(CCOCCNc3cccc4c3C(=O)N(C3CCC(=O)NC3=O)C4=O)C2)c(F)cc1Nc1ncc2c(n1)N(C1CCCC1)CC(F)(F)C(=O)N2C (stereo not shown) [Example 106, 4-((9-cyclopentyl-7,7-difluoro-5-methyl-6-oxo-6,7,8,9-tetrahydro-5H-pyrimido[4,5-b][1,4]diazepin-2-yl)amino)-N-(1-(2-(2-((2-(2,6-dioxopiperidin-3-yl)-1,3-dioxoisoindolin-4-yl)amino)ethoxy)ethyl)pyrrolidin-3-yl)-2-fluoro-5-methoxybenzamide]
≤ 50 | ≥ 80 | COc1cc(C(=O)NC2CCN(CCOCCOCCNc3cccc4c3C(=O)N(C3CCC(=O)NC3=O)C4=O)C2)c(F)cc1Nc1ncc2c(n1)N(C1CCCC1)CC(F)(F)C(=O)N2C (stereo not shown) [Example 107, 4-((9-cyclopentyl-7,7-difluoro-5-methyl-6-oxo-6,7,8,9-tetrahydro-5H-pyrimido[4,5-b][1,4]diazepin-2-yl)amino)-N-(1-(2-(2-(2-((2-(2,6-dioxopiperidin-3-yl)-1,3-dioxoisoindolin-4-yl)amino)ethoxy)ethoxy)ethyl)pyrrolidin-3-yl)-2-fluoro-5-methoxybenzamide]
≤ 50 | ≥ 80 | COc1cc(C(=O)NC2CCN(CCOCCOCCOCCOCCNc3cccc4c3C(=O)N(C3CCC(=O)NC3=O)C4=O)C2)c(F)cc1Nc1ncc2c(n1)N(C1CCCC1)CC(F)(F)C(=O)N2C (stereo not shown) [Example 108, 4-((9-cyclopentyl-7,7-difluoro-5-methyl-6-oxo-6,7,8,9-tetrahydro-5H-pyrimido[4,5-b][1,4]diazepin-2-yl)amino)-N-(1-(14-((2-(2,6-dioxopiperidin-3-yl)-1,3-dioxoisoindolin-4-yl)amino)-3,6,9,12-tetraoxatetradecyl)pyrrolidin-3-yl)-2-fluoro-5-methoxybenzamide]
≤ 500 | 60 to 80 | COc1cc(C(=O)NC2CCN(CCCCCNc3cccc4c3C(=O)N(C3CCC(=O)NC3=O)C4=O)C2)c(F)cc1Nc1ncc2c(n1)N(C1CCCC1)CC(F)(F)C(=O)N2C (stereo not shown) [Example 109, 4-((9-cyclopentyl-7,7-difluoro-5-methyl-6-oxo-6,7,8,9-tetrahydro-5H-pyrimido[4,5-b][1,4]diazepin-2-yl)amino)-N-(1-(5-((2-(2,6-dioxopiperidin-3-yl)-1,3-dioxoisoindolin-4-yl)amino)pentyl)pyrrolidin-3-yl)-2-fluoro-5-methoxybenzamide]
≤ 50 | ≥ 80 | COc1cc(C(=O)NC2CCN(CCOCCCNc3cccc4c3C(=O)N(C3CCC(=O)NC3=O)C4=O)C2)c(F)cc1Nc1ncc2c(n1)N(C1CCCC1)CC(F)(F)C(=O)N2C (stereo not shown) [Example 110, 4-((9-cyclopentyl-7,7-difluoro-5-methyl-6-oxo-6,7,8,9-tetrahydro-5H-pyrimido[4,5-b][1,4]diazepin-2-yl)amino)-N-(1-(2-(3-((2-(2,6-dioxopiperidin-3-yl)-1,3-dioxoisoindolin-4-yl)amino)propoxy)ethyl)pyrrolidin-3-yl)-2-fluoro-5-methoxybenzamide]
≤ 50 | ≥ 80 | COc1cc(C(=O)NC2CCN(CCCOCCCNc3cccc4c3C(=O)N(C3CCC(=O)NC3=O)C4=O)C2)c(F)cc1Nc1ncc2c(n1)N(C1CCCC1)CC(F)(F)C(=O)N2C (stereo not shown) [Example 111, 4-((9-cyclopentyl-7,7-difluoro-5-methyl-6-oxo-6,7,8,9-tetrahydro-5H-pyrimido[4,5-b][1,4]diazepin-2-yl)amino)-N-(1-(3-(3-((2-(2,6-dioxopiperidin-3-yl)-1,3-dioxoisoindolin-4-yl)amino)propoxy)propyl)pyrrolidin-3-yl)-2-fluoro-5-methoxybenzamide]
